# Experimental data reported in patent US8575158B2, “1-phenyl-substituted heterocyclyl derivatives and their use as prostaglandin D2 receptor modulators” (Actelion Pharmaceuticals Ltd., priority 2010, dated 2013).
# Molecular target: T1, hCRTH2 receptor (Homo sapiens, UniProt Q9Y5Y4)
# T1 construct: expressed in transfected cells; host or cells: HEK293
# T1 sequence (Q9Y5Y4 1-395): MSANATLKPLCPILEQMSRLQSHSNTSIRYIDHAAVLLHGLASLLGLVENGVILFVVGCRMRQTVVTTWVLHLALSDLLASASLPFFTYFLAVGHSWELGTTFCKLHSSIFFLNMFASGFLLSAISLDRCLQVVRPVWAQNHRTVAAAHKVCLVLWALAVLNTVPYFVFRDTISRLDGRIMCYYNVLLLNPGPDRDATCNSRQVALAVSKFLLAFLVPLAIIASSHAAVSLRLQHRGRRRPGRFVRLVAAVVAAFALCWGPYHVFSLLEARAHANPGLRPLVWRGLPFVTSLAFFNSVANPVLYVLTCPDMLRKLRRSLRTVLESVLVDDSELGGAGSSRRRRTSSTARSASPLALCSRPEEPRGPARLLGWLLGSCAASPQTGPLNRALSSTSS
# Test: Radioligand displacement assay (3H-PGD2) on hCRTH2 receptor membranes
# Assay type: binding
# Settings: antagonistic activity, 3H-PGD2 radioligand displacement, HEK293-hCRTH2 membranes
row,IC50 [nM],Structure (SMILES)
1,15.1,"O=C(O)COc1ccc(Cl)cc1C1c2ccccc2CN1C(=O)CCn1ncc2c(F)cccc21 (single isomer, unassigned) [Example 535, (4-Chloro-2-{2-[3-(4-fluoro-indazol-1-yl)-propionyl]-2,3-dihydro-1H-isoindol-1-yl}-phenoxy)-acetic acid]"
2,110,"O=C(O)COc1ccc(Cl)cc1C1c2ccccc2CN1C(=O)CCn1ncc2cccc(Cl)c21 (single isomer, unassigned) [Example 536]"
3,25.8,"O=C(O)COc1ccc(Cl)cc1C1c2ccccc2CN1C(=O)CCn1ncc2cccc(F)c21 (single isomer, unassigned) [Example 537, (4-Chloro-2-{2-[3-(7-fluoro-indazol-1-yl)-propionyl]-2,3-dihydro-1H-isoindol-1-yl}-phenoxy)-acetic acid]"
4,704,"Cc1nn(CCC(=O)N2Cc3ccccc3C2c2cc(Cl)ccc2OCC(=O)O)c2cccc(F)c12 (single isomer, unassigned) [Example 538, (4-Chloro-2-{2-[3-(4-fluoro-3-methyl-indazol-1-yl)-propionyl]-2,3-dihydro-1H-isoindol-1-yl}-phenoxy)-acetic acid]"
5,235,"Cc1nn(CCC(=O)N2Cc3ccccc3C2c2cc(Cl)ccc2OCC(=O)O)c2cccc(Cl)c12 (single isomer, unassigned) [Example 539]"
6,633,"Cc1nn(CCC(=O)N2Cc3ccccc3C2c2cc(Cl)ccc2OCC(=O)O)c2c(F)cccc12 (single isomer, unassigned) [Example 540]"
7,865,"Cc1nn(CCC(=O)N2Cc3ccccc3C2c2cc(Cl)ccc2OCC(=O)O)c2cc(F)ccc12 (single isomer, unassigned) [Example 541, (4-Chloro-2-{2-[3-(6-fluoro-3-methyl-indazol-1-yl)-propionyl]-2,3-dihydro-1H-isoindol-1-yl}-phenoxy)-acetic acid]"
8,881,"Cc1nn(CCC(=O)N2Cc3ccccc3C2c2cc(Cl)ccc2OCC(=O)O)c2cc(Cl)ccc12 (single isomer, unassigned) [Example 542, (4-Chloro-2-{2-[3-(6-chloro-3-methyl-indazol-1-yl)-propionyl]-2,3-dihydro-1H-isoindol-1-yl}-phenoxy)-acetic acid]"
9,353,"O=C(O)COc1ccc(Cl)cc1C1c2ccccc2CN1C(=O)CCn1ncc2cc(F)ccc21 (single isomer, unassigned) [Example 543, (4-Chloro-2-{2-[3-(5-fluoro-indazol-1-yl)-propionyl]-2,3-dihydro-1H-isoindol-1-yl}-phenoxy)-acetic acid]"
10,982,"Cc1nn(CCC(=O)N2Cc3ccccc3C2c2cc(Cl)ccc2OCC(=O)O)c2ccccc12 (single isomer, unassigned) [Example 545, (4-Chloro-2-{2-[3-(3-methyl-indazol-1-yl)-propionyl]-2,3-dihydro-1H-isoindol-1-yl}-phenoxy)-acetic acid]"
11,210,"O=C(O)COc1ccc(Cl)cc1C1c2ccccc2CN1C(=O)CCn1ncc2ccc(F)cc21 (single isomer, unassigned) [Example 546, (4-Chloro-2-{2-[3-(6-fluoro-indazol-1-yl)-propionyl]-2,3-dihydro-1H-isoindol-1-yl}-phenoxy)-acetic acid]"
12,272,"O=C(O)COc1ccc(Cl)cc1C1c2ccccc2CN1C(=O)CCn1ncc2c(F)cccc21 (single isomer, unassigned) [Example 547, (4-Chloro-2-{2-[3-(4-fluoro-indazol-1-yl)-propionyl]-2,3-dihydro-1H-isoindol-1-yl}-phenoxy)-acetic acid]"
13,715,"O=C(O)COc1ccc(Cl)cc1C1c2ccccc2CN1C(=O)CCn1ncc2cccc(Cl)c21 (single isomer, unassigned) [Example 548]"
14,292,"O=C(O)COc1ccc(Cl)cc1C1c2ccccc2CN1C(=O)CCn1ncc2cccc(F)c21 (single isomer, unassigned) [Example 551, (4-Chloro-2-{2-[3-(7-fluoro-indazol-1-yl)-propionyl]-2,3-dihydro-1H-isoindol-1-yl}-phenoxy)-acetic acid]"

# Same assay, conditions: antagonistic activity; 3H-PGD2 displacement on HEK293-hCRTH2 membrane fragments
row,IC50 [nM],Structure (SMILES)
1,264,"O=C(O)COc1ccc(Cl)cc1C1c2ccccc2CCN1C(=O)[C@@H]1C[C@H]1c1cccc(Cl)c1 (single isomer, unassigned; diastereoisomer 1) [Example 151, (±)-(4-Chloro-2-{2-[(trans)-2-(3-chloro-phenyl)-cyclopropanecarbonyl]-1,2,3,4-tetrahydro-isoquinolin-1-yl}-phenoxy)-acetic acid (diastereoisomer 1)]"
2,33.4,"O=C(O)COc1ccc(Cl)cc1C1c2ccccc2CCN1C(=O)[C@@H]1C[C@H]1c1cccc(Cl)c1 (single isomer, unassigned; diastereoisomer 2) [Example 152, (±)-(4-Chloro-2-{2-[(trans)-2-(3-chloro-phenyl)-cyclopropanecarbonyl]-1,2,3,4-tetrahydro-isoquinolin-1-yl}-phenoxy)-acetic acid (diastereoisomer 2)]"
3,499,"C[C@H](Oc1ccc(F)cc1C1c2ccccc2CCN1C(=O)OCc1ccccc1)C(=O)O (stereo partly drawn) [Example 2, 1-[2-((S)-1-Carboxy-ethoxy)-5-fluoro-phenyl]-3,4-dihydro-1H-isoquinoline-2-carboxylic acid benzyl ester]"
4,39.5,"C[C@@H](Oc1ccc(F)cc1C1c2ccccc2CCN1C(=O)OCc1ccccc1)C(=O)O (stereo partly drawn) [Example 8, 1-[2-((R)-1-Carboxy-ethoxy)-5-fluoro-phenyl]-3,4-dihydro-1H-isoquinoline-2-carboxylic acid benzyl ester]"
5,11,"C[C@@H](Oc1ccc(C#N)cc1C1c2ccccc2CCN1C(=O)OCc1ccccc1)C(=O)O (stereo partly drawn) [Example 13, 1-[2-((R)-1-Carboxy-ethoxy)-5-cyano-phenyl]-3,4-dihydro-1H-isoquinoline-2-carboxylic acid benzyl ester]"
6,2.52,"N#Cc1ccc(OCC(=O)O)c([C@@H]2c3ccccc3CCN2C(=O)OCc2ccccc2)c1 [Example 25, (S)-1-(2-Carboxymethoxy-5-cyano-phenyl)-3,4-dihydro-1H-isoquinoline-2-carboxylic acid benzyl ester]"
7,4.52,"O=C(O)COc1ccc(Cl)cc1[C@@H]1c2ccccc2CCN1C(=O)OCc1ccccc1 [Example 26, (S)-1-(2-Carboxymethoxy-5-chloro-phenyl)-3,4-dihydro-1H-isoquinoline-2-carboxylic acid benzyl ester]"
8,12.1,"C[C@@H](Oc1ccc(F)cc1[C@@H]1c2ccccc2CCN1C(=O)OCc1ccccc1)C(=O)O [Example 27, (S)-1-[2-((R)-1-Carboxy-ethoxy)-5-fluoro-phenyl]-3,4-dihydro-1H-isoquinoline-2-carboxylic acid benzyl ester]"
9,443,"C[C@H](Oc1ccc(F)cc1[C@@H]1c2ccccc2CCN1C(=O)OCc1ccccc1)C(=O)O [Example 28, (S)-1-[2-((S)-1-Carboxy-ethoxy)-5-fluoro-phenyl]-3,4-dihydro-1H-isoquinoline-2-carboxylic acid benzyl ester]"
10,1.41,"O=C(O)COc1ccc(Cl)cc1[C@@H]1c2cccc(F)c2CCN1C(=O)OCc1ccccc1 [Example 31, (S)-1-(2-Carboxymethoxy-5-chloro-phenyl)-5-fluoro-3,4-dihydro-1H-isoquinoline-2-carboxylic acid benzyl ester]"
11,1.99,"N#Cc1ccc(OCC(=O)O)c([C@@H]2c3cccc(F)c3CCN2C(=O)OCc2ccccc2)c1 [Example 32, (S)-1-(2-Carboxymethoxy-5-cyano-phenyl)-5-fluoro-3,4-dihydro-1H-isoquinoline-2-carboxylic acid benzyl ester]"
12,134,"O=C(O)COc1ccc(Cl)cc1C1c2ccccc2CCN1C(=O)C1CCc2ccccc2C1 (centres unmarked) [Example 77, {4-Chloro-2-[2-(1,2,3,4-tetrahydro-naphthalene-2-carbonyl)-1,2,3,4-tetrahydro-isoquinolin-1-yl]-phenoxy}-acetic acid]"
13,28.4,"O=C(O)COc1ccc(Cl)cc1C1c2ccccc2CCN1C(=O)CCN1C(=O)CSC1c1ccccc1 (centres unmarked) [Example 84, (4-Chloro-2-{2-[3-(4-oxo-2-phenyl-thiazolidin-3-yl)-propionyl]-1,2,3,4-tetrahydro-isoquinolin-1-yl}-phenoxy)-acetic acid]"
14,5.75,"O=C(O)COc1ccc(Cl)cc1[C@@H]1c2ccccc2CCN1C(=O)OCc1ccccc1Cl [Example 174, (S)-1-(2-Carboxymethoxy-5-chloro-phenyl)-3,4-dihydro-1H-isoquinoline-2-carboxylic acid 2-chloro-benzyl ester]"
15,21,"C[C@@H](Oc1ccc(Cl)cc1C1c2ccccc2CCN1C(=O)OCc1ccccc1)C(=O)O (stereo partly drawn) [Example 220, 1-[2-((R)-1-Carboxy-ethoxy)-5-chloro-phenyl]-3,4-dihydro-1H-isoquinoline-2-carboxylic acid benzyl ester]"
16,2.91,"O=C(O)COc1ccc(F)cc1[C@@H]1c2ccccc2CCN1C(=O)OCc1ccccc1 [Example 221, (S)-1-(2-Carboxymethoxy-5-fluoro-phenyl)-3,4-dihydro-1H-isoquinoline-2-carboxylic acid benzyl ester]"
17,71.3,CC(C)(C)OC(=O)N1CCc2ccccc2[C@H]1c1cc(Cl)ccc1OCC(=O)O [Example 228]
18,4.95,"O=C(O)COc1ccc(Cl)cc1[C@@H]1c2ccc(F)c(F)c2CCN1C(=O)OCc1ccccc1 [Example 229, (S)-1-(2-Carboxymethoxy-5-chloro-phenyl)-5,6-difluoro-3,4-dihydro-1H-isoquinoline-2-carboxylic acid benzyl ester]"
